≈ marks a conversion by molar mass, not a printed value. Like-named read-outs stand apart in the source and are kept apart here.
How the values were obtained:
Type in all cases: cell-based
Streptococcus pyogenes = experiment: Bacterial growth assay and MIC determination, S. pyogenes; settings: Streptococcus pyogenes; Table 1; most sensitive species S. pyogenes (SP); read-out: MIC (μg/ml) for most sensitive bacterial species
Experimental: (§1) Strains of Escherichia coli, Staphylococcus aureus and Staphylococcus epidermidis, were grown overnight in 1% Bacto tryptone medium (BD, Sparks, Md.). Streptococcus pyogenes was grown overnight in Bacto Todd Hewitt Broth medium (BD, Sparks, Md.). Cultures were then diluted 1:1,000 in fresh assay medium supplemented with or without 20% fetal bovine serum (FBS; HyClone, Celbio, Logan, Utah) and added to 96-well sterile enzyme-linked immunosorbent assay (ELISA) plates (100 μl per well). The compounds to be tested were diluted in the medium without serum and added to the bacteria (100 μl per well). Plates were incubated at 37° C., and bacterial growth was monitored over time by reading the optical density at 490 nm using a microplate reader (model 450; Bio-Rad Laboratories Inc., Hercules, Calif.). Streptococcus pneumoniae strains were grown to mid-log phase (OD620 of 0.3) and stored in 15% glycerol at […] till further use. Minimal inhibitory concentration (MIC) of antibiotics was determined according to standard procedures. Bacteria were diluted 10-fold in Mueller-Hinton medium (BD, Sparks, Md.) and added to 96-well sterile ELISA plates (150 μl per well). The compounds to be tested were diluted in the medium without serum and added to the bacteria (150 μl per well). Plates were incubated overnight at 37° C. in 5% CO2. The MIC was defined as the lowest concentration of compound at which no growth was visible with the naked eye.

[1] = test system: Plasmodium falciparum NF54 parasites; experiment: P. falciparum asexual blood stage replication assay (SYBR Green); settings: NF54, 10% human serum, 72 incubation
Experimental: Compounds were tested on their ability to inhibit replication of the human malaria parasite Plasmodium falciparum. To this end, Plasmodium falciparum NF54 parasites were cultured in RPMI1640 medium supplemented with 367 μM hypoxanthine, 25 mM HEPES, 25 mM sodiumbicarbonate and 10% human type A serum in an automated large-scale culture system as described before (Transactions of the Royal Society of Tropical Medicine and Hygiene, 1982. 76: p. 812-818). Compounds were diluted in DMSO and subsequently in culture medium to reach a DMSO concentration of 0.2%. 50 μl of diluted compound was transferred to a black 96 well plate. A culture of P. falciparum strain NF54 malaria parasites was diluted to a parasitaemia of 0.5% and a hematocrit of 3%. 50 μl of this diluted culture was added to each well in the 96 well plate._The outermost wells of the plate were filled with sterile water to prevent evaporation. The established antimalarial dihydroartemisinin (DHA) in DMSO acted as a positive control (MIN signal), and 0.1% DMSO acted as a negative control (MAX signal). The plates were incubated for 72 at 37° C., 3% 02, 5% CO2, 93% N2. Changes in parasite replication relative to the controls were monitored using the DNA-marker SYBR Green as described previously (Antimicrob Agents Chemother 48:1803-6). Data were analyzed by logistic regression using the formula: Y=Bottom+(Top-Bottom)/(1+10̂((Log IC50−X)*HillSlope)) and a least squares method to find the best fit.
Using similar methods, IC50 values were determined for a variety of inverted pantothenamides, as listed in table 1 (see section: ‘Detailed description of the invention’)

[2] = test system: Staphylococcus epidermidis; experiment: Bacterial growth assay and MIC determination, S. epidermidis; settings: Staphylococcus epidermidis; Table 1; most sensitive species S. epidermidis (SE); read-out: MIC (μg/ml) for most sensitive bacterial species
Experimental: as §1

[3] = test system: S. aureus (SA), S. epidermidis (SE), S. pyogenes (SP), S. pneumoniae (SPn); experiment: MIC for most sensitive bacterial species (panel); settings: Table 1, no species named, read-out: MIC (μg/ml) for most sensitive bacterial species
Experimental: as §1

Staphylococcus aureus = experiment: Bacterial growth assay and MIC determination, S. aureus; settings: Staphylococcus aureus, Table 1; most sensitive species S. aureus (SA); read-out: MIC (μg/ml) for most sensitive bacterial species
Experimental: as §1

SMILES	MIC (Streptococcus pyogenes) [µg/mL]	IC50 [1] [µM]	also measured
CC(C)CCC(=O)NCCNC(=O)[C@H](O)C(C)(C)CO [CXP14.18-005]	8 (≈ 27.7 µM)	2.78	–
C=CCCC(=O)NCCNC(=O)[C@H](O)C(C)(C)CO [CXP14.18-007]	16 (≈ 58.7 µM)	5.15	–
C=CCCCC(=O)NCCNC(=O)[C@H](O)C(C)(C)CO [CXP14.18-008]	16 (≈ 55.9 µM)	0.74	–
C=CCCCCC(=O)NCCNC(=O)[C@H](O)C(C)(C)CO [CXP14.18-010]	16 (≈ 53.3 µM)	0.71	–
CCCCCCCCCCC(=O)NCCNC(=O)[C@H](O)C(C)(C)CO [CXP14.18-012]	–	> 10	MIC [2]: 8 µg/mL (≈ 22.3 µM)
C=CC(C)CC(=O)NCCNC(=O)[C@H](O)C(C)(C)CO (stereo partly shown) [CXP14.18-014]	16 (≈ 55.9 µM)	4.93	–
C#CCCCC(=O)NCCNC(=O)[C@H](O)C(C)(C)CO [CXP14.18-016]	32 (≈ 113 µM)	0.81	–
CCC(=O)NCCNC(=O)[C@H](O)C(C)(C)CO [CXP14.18-019]	–	0.17	MIC ([3]; Streptococcus pneumoniae, marked *: not tested for S. pneumoniae): > 32 µg/mL
CCCC(=O)NCCNC(=O)[C@H](O)C(C)(C)CO [CXP14.18-020]	32 (≈ 123 µM)	2	–
CCCCC(=O)NCCNC(=O)[C@H](O)C(C)(C)CO [CXP14.18-028]	2 (≈ 7.29 µM)	0.85	–
CSCCCC(=O)NCCNC(=O)[C@H](O)C(C)(C)CO [CXP14.18-034]	8 (≈ 26.1 µM)	0.62	–
CCOCCC(=O)NCCNC(=O)[C@H](O)C(C)(C)CO [CXP14.18-035]	16 (≈ 55.1 µM)	> 10	–
CCCSCC(=O)NCCNC(=O)[C@H](O)C(C)(C)CO [CXP14.18-037]	4 (≈ 13.1 µM)	1.34	–
CCSCCC(=O)NCCNC(=O)[C@H](O)C(C)(C)CO [CXP14.18-038]	8 (≈ 26.1 µM)	0.37	–
CC(C)(CO)[C@@H](O)C(=O)NCCNC(=O)Cc1ccccc1 [CXP18.6-007]	16 (≈ 51.9 µM)	3.9	–
CC(C)(CO)[C@@H](O)C(=O)NCCNC(=O)CCCc1ccccc1 [CXP18.6-008]	–	0.57	MIC [2]: 16 µg/mL (≈ 47.6 µM)
CC(C)(CO)[C@@H](O)C(=O)NCCCNC(=O)Cc1ccccc1 [CXP18.6-009]	–	9.2	MIC ([3]; tested for SA, SE, SP and SPn): > 32 µg/mL
CC(C)(CO)[C@@H](O)C(=O)NCCCNC(=O)CCc1ccccc1 [CXP18.6-010]	–	7.5	MIC ([3]; tested for SA, SE, SP and SPn): > 32 µg/mL
CC(C)(CO)[C@@H](O)C(=O)NCCNC(=O)CCc1cccc(F)c1 [CXP18.6-018]	16 (≈ 47 µM)	0.1	–
CC(C)(CO)[C@@H](O)C(=O)NCCNC(=O)CCc1ccc(F)cc1 [CXP18.6-019]	–	0.42	MIC [2]: 32 µg/mL (≈ 94 µM)
COc1ccc(CCC(=O)NCCNC(=O)[C@H](O)C(C)(C)CO)cc1 [CXP18.6-022]	–	1	MIC ([3]; tested for SA, SE, SP and SPn): > 32 µg/mL
CC(C)(CO)[C@@H](O)C(=O)NCCNC(=O)CCc1ccccc1Cl [CXP18.6-027]	–	0.58	MIC ([3]; tested for SA, SE, SP and SPn): > 32 µg/mL
CC(C)(CO)[C@@H](O)C(=O)NCCNC(=O)CCc1ccc(Cl)cc1 [CXP18.6-028]	–	0.19	MIC ([3]; tested for SA, SE, SP and SPn): > 32 µg/mL
CC(C)(CO)[C@@H](O)C(=O)NCCNC(=O)CCc1ccccc1C(F)(F)F [CXP18.6-038]	–	6.4	MIC [2]: 32 µg/mL (≈ 82 µM)
CC(C)(CO)[C@@H](O)C(=O)NCCNC(=O)CCc1ccc(C(F)(F)F)cc1 [CXP18.6-042]	–	0.21	MIC ([3]; tested for SA, SE, SP and SPn): > 32 µg/mL
CC(C)(C)c1ccc(CCC(=O)NCCNC(=O)[C@H](O)C(C)(C)CO)cc1 [CXP18.6-043]	–	0.15	MIC ([3]; tested for SA, SE, SP and SPn): > 32 µg/mL
CC(C)(CO)[C@@H](O)C(=O)NCCNC(=O)/C=C/c1ccccc1 [CXP18.6-048]	–	2.2	MIC [2]: 16 µg/mL (≈ 49.9 µM)
CC(C)(CO)[C@@H](O)C(=O)NCCNC(=O)CCc1ccccn1 [CXP18.6-055]	–	1.6	MIC [2]: 32 µg/mL (≈ 99 µM)
CC(C)(CO)[C@@H](O)C(=O)NCCNC(=O)CCc1ccco1 [CXP18.6-057]	–	0.4	MIC [2]: 16 µg/mL (≈ 51.2 µM); MIC (Staphylococcus aureus): 16 µg/mL (≈ 51.2 µM)
CC(C)(CO)[C@@H](O)C(=O)NCCNC(=O)CCc1ccc(F)cc1F [CXP18.6-069]	–	0.11	MIC [2]: 4 µg/mL (≈ 11.2 µM)

From patent US20180282279A1, “Pantothenamide Analogues” (Radboud Universitair Medisch Centrum, priority 2014, published 2018)
